Drawing on patent US9067897B2, “2,4-Diaminoquinazolines for spinal muscular atrophy” (Families of Spinal Muscular Atrophy, priority 2004, dated 2015), this text covers EC50 for 38 compounds.

The EC50 is the concentration giving half of the maximal effect. A low value points to greater potency.

Counter-ions that a name gives are not always drawn. Where only a bound is given, the exact number is not on record here.

One experiment deals with SMN2 promoter. The experiment is described as follows: SMN2 promoter assay (β-lactamase reporter) in NSC-34 cells. It is filed as cell-based, mouse. Particulars: Mus musculus, SMN2 promoter driving β-lactamase, 12 point dose curve, average of 3-6 dose curve experiments.
`CC(Oc1cccc2nc(N)nc(N)c12)C1CCCCC1` (centres unmarked) [Example 126, 5-(1-Cyclohexyl-ethoxy)-quinazoline-2,4-diamine] came in with an EC50 of under 1 µM.

Consider `Nc1nc(N)c2c(Cc3ccccc3)cccc2n1` [Example 24, 5-Benzylquinazoline-2,4-diamine], for which the EC50 is under 1 µM. Still for that read-out and setting: next, `COc1ccc(COc2cccc3nc(N)nc(N)c23)cc1OC` [Example 65, 5-(3,4-Dimethoxybenzyloxy)-quinazoline-2,4-diamine]: under 1 µM; `COc1cccc(COc2cccc3nc(N)nc(N)c23)c1` [Example 143, 5-(3-Methoxybenzyloxy)quinazoline-2,4-diamine]: under 1 µM. Still for that read-out and setting: next, `Nc1nc(N)c2c(OCc3cc(F)cc(F)c3F)cccc2n1` [Example 83, 5-(2,3,5-Trifluorobenzyloxy)-quinazoline-2,4-diamine]: under 1 µM; `CCCC(Oc1cccc2nc(N)nc(N)c12)C1CCCCC1` (centres unmarked) [Example 125, 5-(1-Cyclohexyl-butoxy)-quinazoline-2,4-diamine]: under 1 µM. Consider `Nc1nc(N)c2c(COc3ccc(F)cc3)cccc2n1` [Example 45, 5-(4-Fluorophenoxymethyl)quinazoline-2,4-diamine], for which the EC50 was under 1 µM. On the same count and under the same terms, next, `CC1(COc2cccc3nc(N)nc(N)c23)COC1` [Example 127, 5-(3-Methyl-oxetan-3-ylmethoxy)-quinazoline-2,4-diamine]: under 1 µM. Still for that read-out and setting: next, `CC(C)(C)OC(=O)N1CCC(COc2cccc3nc(N)nc(N)c23)CC1` [Example 121, 4-(2,4-Diamino-quinazolin-5-yloxymethyl)-piperidin-1-carboxylic acid tert-butyl ester]: under 1 µM. On the same count and under the same terms, next, `COc1ccccc1COc1cccc2nc(N)nc(N)c12` [Example 142, 5-(2-Methoxybenzyloxy)quinazoline-2,4-diamine]: under 1 µM.

The compound `COc1ccc(COc2cccc3nc(N)nc(N)c23)cc1` [Example 144, 5-(4-Methoxybenzyloxy)quinazoline-2,4-diamine] showed an EC50 of under 1 µM. Still for that read-out and setting: next, `Nc1nc(N)c2c(OCC3CC4CC3C(O)C4O)cccc2n1` (centres unmarked) [Example 131, 5-(2,4-Diamino-quinazolin-5-yloxymethyl)-bicyclo[2.2.1]heptane-2,3-diol]: under 1 µM. On the same count and under the same terms, next, `Cc1ccc(CCOc2cccc3nc(N)nc(N)c23)cc1` [Example 8, 5-(2-p-Tolylethoxy)quinazoline-2,4-diamine]: under 1 µM; `Nc1nc(N)c2c(OCc3ccsc3)cccc2n1` [Example 47, 5-(Thiophen-3-ylmethoxy)quinazoline-2,4-diamine]: under 1 µM.

With `Nc1nc(N)c2c(OCC3CCCC3)cccc2n1` [Example 18, 5-(Cyclopentylmethoxy)quinazoline-2,4-diamine], the EC50 is under 1 µM. On the same count and under the same terms, next, `Nc1nc(N)c2c(OCC34CC5CC(CC(C5)C3)C4)cccc2n1` [Example 73, 5-(Adamantan-1-ylmethoxy)-quinazoline-2,4-diamine]: under 1 µM; `Nc1nc(N)c2c(OC3Cc4ccccc4C3)cccc2n1` [Example 40, 5-(Indan-2-yloxy)quinazoline-2,4-diamine]: under 1 µM. Still for that read-out and setting: next, `Nc1nc(N)c2c(O[C@@H]3C[C@H]4CC[C@@H]3C4)cccc2n1` [Example 118, 5-((1R,2R,4S)-Bicyclo[2.2.1]hept-2-yloxy)quinazoline-2,4-diamine]: under 1 µM. In turn, `CC(Oc1cccc2nc(N)nc(N)c12)c1ccccc1Cl` (centres unmarked) [Example 104, 5-[1-(2-Chlorophenyl)ethoxy]-quinazoline-2,4-diamine] gave an EC50 of under 1 µM.

The compound `CCCCCCCCOc1cccc2nc(N)nc(N)c12` [Example 38, 5-Octyloxyquinazoline-2,4-diamine] had an EC50 of under 1 µM. With `Nc1nc(N)c2c(OCC3CCCCO3)cccc2n1` (centres unmarked) [Example 55, 5-(Tetrahydropyran-2-ylmethoxy)quinazoline-2,4-diamine], the EC50 is under 1 µM. On the same count and under the same terms, next, `Nc1nc(N)c2c(O[C@@H]3CCc4ccc(Cl)cc43)cccc2n1` [Example 150, 5-((R)-6-Chloroindan-1-yloxy)quinazoline-2,4-diamine]: under 1 µM; `C[C@@H](Oc1cccc2nc(N)nc(N)c12)c1cccc2ccccc12` [Example 110, 5-((R)-1-Naphthalen-1-yl-ethoxy)-quinazoline-2,4-diamine]: 1 to 5 µM; `Nc1nc(N)c2c(OC(c3ccccc3)c3ccccc3)cccc2n1` [Example 52, 5-Benzhydryloxyquinazoline-2,4-diamine]: under 1 µM.

In the case of `COCOCC(COc1cccc2nc(N)nc(N)c12)c1ccc(Cl)cc1` (centres unmarked) [Example 68, 5-[2-(4-Chlorophenyl)-3-methoxymethoxypropoxy]-quinazoline-2,4-diamine], the EC50 was under 1 µM.

With `COCC(Oc1cccc2nc(N)nc(N)c12)c1ccc(Cl)cc1` (centres unmarked) [Example 114, 5-[1-(4-Chlorophenyl)-2-methoxyethoxy]-quinazoline-2,4-diamine], the EC50 is under 1 µM.

The compound `Nc1nc(N)c2c(OCc3ccc(F)cc3)cccc2n1` [Example 97, 5-(4-Fluorobenzyloxy)-quinazoline-2,4-diamine] displayed an EC50 of under 1 µM. The same measure, in the same setting: next, `Nc1nc(N)c2c(OCc3ccoc3)cccc2n1` [Example 34, 5-(Furan-3-ylmethoxy)quinazoline-2,4-diamine]: under 1 µM. Take `Nc1nc(N)c2c(OCCc3ccc(Cl)cc3)cccc2n1` [Example 9, 5-[2-(4-Chlorophenyl)ethoxy]quinazoline-2,4-diamine]: the EC50 is under 1 µM. On the same count and under the same terms, next, `Nc1nc(N)c2c(OCC(CO)c3ccc(Cl)cc3)cccc2n1` (centres unmarked) [Example 69, 2-(4-Chlorophenyl)-3-(2,4-diaminoquinazolin-5-yloxy)-propan-1-ol hydrochloride]: under 1 µM. The same measure, in the same setting: next, `Nc1nc(N)c2c(OCC3CCN(C(=O)c4ccc(Cl)cc4)CC3)cccc2n1` [Example 123, (4-Chlorophenyl)-[4-(2,4-diamino-quinazolin-5-yloxymethyl)-piperidin-1-yl]-methanone]: under 1 µM. On the same count and under the same terms, next, `Nc1nc(N)c2c(OCCc3ccccc3)cccc2n1` [Example 37, 5-Phenethyloxyquinazoline-2,4-diamine]: under 1 µM. `Nc1nc(N)c2c(Cc3ccsc3)cccc2n1` [Example 46, 5-Thiophen-3-ylmethylquinazoline-2,4-diamine] yielded a 50% effective concentration (EC50) of under 1 µM. On the same count and under the same terms, next, `Nc1nc(N)c2c(OCc3cccc4cccnc34)cccc2n1` [Example 113, 5-(Quinolin-8-ylmethoxy)-quinazoline-2,4-diamine]: under 1 µM.

The same experiment, now with this note: SMN2 promoter driving β-lactamase, 12 point dose curve, average of 3-6 dose curve experiments.
Turning to `Nc1nc(N)c2c(OC3C4CC5CC(C4)CC3C5)cccc2n1` (centres unmarked) [Example 119, 5-(Adamanta-2-yloxy)quiazoline-2,4-diamine], the EC50 is under 1 µM.

On to `Nc1nc(N)c2c(OCC3CCN(C(=O)c4cccc(I)c4)CC3)cccc2n1` [Example 135, [4-(2,4-Diaminoquinzolin-5-yloxymethyl)piperidin-1-yl]-(3-iodophenyl)methanone], for which the EC50 was under 1 µM. Still for that read-out and setting: next, `Nc1nc(N)c2c(OCC3CCN(C(=O)c4ccc(I)cc4)CC3)cccc2n1` [Example 136, [4-(2,4-Diaminoquinzolin-5-yloxymethyl)piperidin-1-yl]-(4-iodophenyl)methanone]: under 1 µM.

For “5-[1-(4-fluorophenyl)-1-methyl-ethoxy]-quinazoline-2,4-diamine [Example 101]”, the EC50 was under 1 µM.
